Laboratory results published in PubChem BioAssay AID1919014 (Molecular Pharmacology Branch, DTP, NCI, 2023).
pIC50: −log10 of the molar value.

System: NCI-H1341 complex spheroids, percent test/control
Assay: Anticancer human tumor NCI-H1341 cell line growth inhibition [AhR];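 note: spheroids exposed to agents for seven days before readout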
Conditions: for pIC50: curve of first compound; for viability, T/C: stronger effect = lower value; active = viability on the fitted dose curve at most 10% of control; inactive = the rest
Method in brief: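 Spheroids combined tumor cells with HUVEC endothelial cells and human MSCs as stroma. AhR antagonists were paired with standard or investigational drugs, each dosed in half-log steps down from near clinical Cmax, or from 10 microM where Cmax was unknown.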

[1] = second compound 0.1 µM, first compound 0.00949 µM
[2] = second compound 0.1 µM, first compound 0.03 µM
[3] = second compound 0.1 µM, first compound 0.0949 µM
[4] = second compound 0.1 µM, first compound 0.3 µM
[5] = second compound 0.316 µM, first compound 0.00949 µM
[6] = second compound 0.316 µM, first compound 0.03 µM
[7] = second compound 0.316 µM, first compound 0.0949 µM
[8] = second compound 0.316 µM, first compound 0.3 µM
[9] = second compound 1 µM, first compound 0.00949 µM
[10] = second compound 1 µM, first compound 0.03 µM
[11] = second compound 1 µM, first compound 0.0949 µM
[12] = second compound 1 µM, first compound 0.3 µM
[13] = second compound 3.16 µM, first compound 0.00949 µM
[14] = second compound 3.16 µM, first compound 0.03 µM
[15] = second compound 3.16 µM, first compound 0.0949 µM
[16] = second compound 3.16 µM, first compound 0.3 µM
[17] = second compound 10 µM, first compound 0.00949 µM
[18] = second compound 10 µM, first compound 0.03 µM
[19] = second compound 10 µM, first compound 0.0949 µM
[20] = second compound 10 µM, first compound 0.3 µM

CC1COCCN1c1cc(C2(S(C)(=N)=O)CC2)nc(-c2ccnc3[nH]ccc23)n1 (stereo not given) + Cc1cncc(-c2nc(NCCc3c[nH]c4ccccc34)c3ncn(C(C)C)c3n2)c1
> 7.50: pIC50 (second compound 10 µM)
inactive: viability, T/C (second compound 0.1 µM, first compound 0.0316 µM) 81.4% | viability, T/C (second compound 0.1 µM, first compound 0.1 µM) 85.2% | viability, T/C (second compound 0.1 µM, first compound 0.316 µM) 71.1% | viability, T/C (second compound 0.1 µM, first compound 1 µM) 71.5% | viability, T/C (second compound 0.1 µM, first compound 3.16 µM) 54.6% | viability, T/C (second compound 0.1 µM, first compound 10 µM) 21.9% | viability, T/C (second compound 0.316 µM, first compound 0.0316 µM) 87.9% | viability, T/C (second compound 0.316 µM, first compound 0.1 µM) 84.1% | viability, T/C (second compound 0.316 µM, first compound 0.316 µM) 75.1% | viability, T/C (second compound 0.316 µM, first compound 1 µM) 62.1% | viability, T/C (second compound 0.316 µM, first compound 3.16 µM) 41.6% | viability, T/C (second compound 0.316 µM, first compound 10 µM) 20.6% | viability, T/C (second compound 1 µM, first compound 0.0316 µM) 89.9% | viability, T/C (second compound 1 µM, first compound 0.1 µM) 83.6% | viability, T/C (second compound 1 µM, first compound 0.316 µM) 70.3% | viability, T/C (second compound 1 µM, first compound 1 µM) 75.1% | viability, T/C (second compound 1 µM, first compound 3.16 µM) 51.7% | viability, T/C (second compound 1 µM, first compound 10 µM) 22.8% | viability, T/C (second compound 3.16 µM, first compound 0.0316 µM) 54.7% | viability, T/C (second compound 3.16 µM, first compound 0.1 µM) 66.3% | viability, T/C (second compound 3.16 µM, first compound 0.316 µM) 65.6% | viability, T/C (second compound 3.16 µM, first compound 1 µM) 62.9% | viability, T/C (second compound 3.16 µM, first compound 3.16 µM) 38.5% | viability, T/C (second compound 3.16 µM, first compound 10 µM) 25.6% | viability, T/C (second compound 10 µM, first compound 0.0316 µM) 40.5% | viability, T/C (second compound 10 µM, first compound 0.1 µM) 30.7% | viability, T/C (second compound 10 µM, first compound 0.316 µM) 39.2% | viability, T/C (second compound 10 µM, first compound 1 µM) 29.1% | viability, T/C (second compound 10 µM, first compound 3.16 µM) 26.3% | viability, T/C (second compound 10 µM, first compound 10 µM) 13.9%
5.71: pIC50 (second compound 0.316 µM)
5.74: pIC50 (second compound 3.16 µM)
5.46: pIC50 (second compound 1 µM)
5.44: pIC50 (second compound 0.1 µM)

Nc1ncn(C2CC(O)C(CO)S2)c(=O)n1 (stereo not given) + Cc1cncc(-c2nc(NCCc3c[nH]c4ccccc34)c3ncn(C(C)C)c3n2)c1
< 6.52: pIC50 (second compound 0.1 µM) | pIC50 (second compound 1 µM) | pIC50 (second compound 3.16 µM)
> 9.02: pIC50 (second compound 10 µM)
inactive: viability, T/C (second compound 0.1 µM, first compound 0.000949 µM) 102% | viability, T/C (second compound 0.1 µM, first compound 0.003 µM) 82.9% | viability, T/C [1] 91.5% | viability, T/C [2] 88.3% | viability, T/C [3] 67.7% | viability, T/C [4] 50.2% | viability, T/C (second compound 0.316 µM, first compound 0.000949 µM) 84.9% | viability, T/C (second compound 0.316 µM, first compound 0.003 µM) 89.5% | viability, T/C [5] 79.6% | viability, T/C [6] 73.8% | viability, T/C [7] 71.8% | viability, T/C [8] 47.8% | viability, T/C (second compound 1 µM, first compound 0.000949 µM) 69.8% | viability, T/C (second compound 1 µM, first compound 0.003 µM) 87.3% | viability, T/C [9] 80.7% | viability, T/C [10] 77.2% | viability, T/C [11] 67.5% | viability, T/C [12] 58% | viability, T/C (second compound 3.16 µM, first compound 0.000949 µM) 93.7% | viability, T/C (second compound 3.16 µM, first compound 0.003 µM) 97.9% | viability, T/C [13] 86.9% | viability, T/C [14] 84.7% | viability, T/C [15] 82.3% | viability, T/C [16] 63.8% | viability, T/C (second compound 10 µM, first compound 0.000949 µM) 45% | viability, T/C (second compound 10 µM, first compound 0.003 µM) 44.2% | viability, T/C [17] 42.1% | viability, T/C [18] 35.8% | viability, T/C [19] 33.1% | viability, T/C [20] 26%
6.55: pIC50 (second compound 0.316 µM)

O=C(C=Cn1cnc(-c2cc(C(F)(F)F)cc(C(F)(F)F)c2)n1)NNc1cnccn1 + Cc1cncc(-c2nc(NCCc3c[nH]c4ccccc34)c3ncn(C(C)C)c3n2)c1
inactive: viability, T/C [1] 80.6% | viability, T/C [2] 77% | viability, T/C [3] 51.1% | viability, T/C [4] 14.5% | viability, T/C [5] 66.5% | viability, T/C [6] 65.7% | viability, T/C [7] 38% | viability, T/C [8] 13.4% | viability, T/C [9] 76.8% | viability, T/C [10] 78.5% | viability, T/C [11] 45.1% | viability, T/C [12] 12.7% | viability, T/C [13] 70.2% | viability, T/C [14] 60.4% | viability, T/C [15] 30.8% | viability, T/C [16] 13.6% | viability, T/C [17] 35.3% | viability, T/C [18] 34.8% | viability, T/C [19] 17.4% | viability, T/C [20] 9.23%
7.35: pIC50 (second compound 3.16 µM)
7.01: pIC50 (second compound 0.1 µM)
active: viability, T/C (second compound 0.1 µM, first compound 0.949 µM) 7.39% | viability, T/C (second compound 0.1 µM, first compound 3 µM) 6.28% | viability, T/C (second compound 0.316 µM, first compound 0.949 µM) 7.92% | viability, T/C (second compound 0.316 µM, first compound 3 µM) 4.63% | viability, T/C (second compound 1 µM, first compound 0.949 µM) 7.39% | viability, T/C (second compound 1 µM, first compound 3 µM) 4.92% | viability, T/C (second compound 3.16 µM, first compound 0.949 µM) 7.86% | viability, T/C (second compound 3.16 µM, first compound 3 µM) 4.46% | viability, T/C (second compound 10 µM, first compound 0.949 µM) 5.77% | viability, T/C (second compound 10 µM, first compound 3 µM) 3.55%
7.25: pIC50 (second compound 0.316 µM)
7.09: pIC50 (second compound 1 µM)
> 8.02: pIC50 (second compound 10 µM)
